Experimental findings from patent publication EP0102564A2, “Method for the removal of toxins bound to protein or lipid from blood or blood fractions, and use of certain compounds as liberating agents” (FRAUNHOFER-GESELLSCHAFT ZUR FÖRDERUNG DER ANGEWANDTEN …, priority 1982, dated 1984) are described below.

One assay concerns Plasma. Nature of the assay: Removal of protein-bound ET from plasma. The following applies: for Restkonzentration an ET nach Adsorption an AK mit vorheriger Freisetzung durch Entkoppler: 30 mg AK, 45 min, relative to initial value.
The test system of assay [1] is Ethanthiol, Proteinbindung. The settings on record: molar ratio of uncoupler to toxin; toxin Ethanthiol (Methanthiol).
A further assay concerns the target BSA (Bos taurus, UniProt P02769). In words: Adsorption of ET on activated carbon after prior release by uncoupler, BSA, batch. The settings on record: uncoupler pre-adsorbed on SCII, then 30 mg AK. Also on record: species or system Rind. The procedure:
In dieser Versuchsreihe wurde das Zusammenwirken aller bisher betrachteten Parameter im Batch erprobt. 1 ml ET-Lösung (2170/umol ET/1 PBS) wurden für ca. 18 Stunden bei 37°C mit 40 mg BSA inkubiert. Nach dieser Zeit beträgt die ET-Konzentration lediglich 5% des Ausgangswerts (d.h. 95% des ET sind an das BSA gebunden). Nun erfolgte die Zugabe von 150/ul Entkoppler (K-Cystein = 115, Fig. 7, Kurve a; K-Glutathion = 30, Fig. 8, Kurve a). Die Abkopplung des ET wird verfolgt, bis keine Zunahme der ET-Konzentration mehr eintritt. Bei der Verwendung von Cystein erfolgt die Freisetzung schneller als bei Glutathion.
Nun wurden 30 mg SCII (vorher in PBS entgast) zu den Proben hinzugegeben. Die ET-Konzentration nimmt nun rasch ab. Die gesamte Restmenge beträgt nach 45 Minuten nur noch ca. 5% des Anfangswerts. Es wurden also 95% der vorgegebenen Thiolmenge von 30 mg AK entfernt.
In einer weiteren Versuchsreihe wurde untersucht, ob der Entkoppler auch wirksam ist, wenn er zuvor an Aktivkohle adsorbiert wurde. Dazu wurden 30 mg SCII mit den Entkoppler-Lösungen 2 Stunden inkubiert. Diese vorbeladene Kohle wurde dann statt der Entkoppler-Lösung eingesetzt. Fig. 7 und 8 (jeweils Kurve b) zeigen den Abkopplungsvorgang. Die freie ET-Konzentration steigt in beiden Fällen nicht auf den Anfangswert an. Dem Freisetzungsprozeß ist eine Adsorption überlagert. Sie liegt bei AK-Glutathion um ca. 50% tiefer als bei AK-Cystein. Nach Zugabe von 30 mg AK (in PBS entgast) fällt die ET-Konzentration schnell ab. Nach 45 Minuten beträgt die adsorbierte Menge bei Verwendung von Cystein ca. 97%, bei Verwendung von Glutathion ca. 95%.

Molecules are shown by their SMILES.

BSA, sequence (P02769 25-607): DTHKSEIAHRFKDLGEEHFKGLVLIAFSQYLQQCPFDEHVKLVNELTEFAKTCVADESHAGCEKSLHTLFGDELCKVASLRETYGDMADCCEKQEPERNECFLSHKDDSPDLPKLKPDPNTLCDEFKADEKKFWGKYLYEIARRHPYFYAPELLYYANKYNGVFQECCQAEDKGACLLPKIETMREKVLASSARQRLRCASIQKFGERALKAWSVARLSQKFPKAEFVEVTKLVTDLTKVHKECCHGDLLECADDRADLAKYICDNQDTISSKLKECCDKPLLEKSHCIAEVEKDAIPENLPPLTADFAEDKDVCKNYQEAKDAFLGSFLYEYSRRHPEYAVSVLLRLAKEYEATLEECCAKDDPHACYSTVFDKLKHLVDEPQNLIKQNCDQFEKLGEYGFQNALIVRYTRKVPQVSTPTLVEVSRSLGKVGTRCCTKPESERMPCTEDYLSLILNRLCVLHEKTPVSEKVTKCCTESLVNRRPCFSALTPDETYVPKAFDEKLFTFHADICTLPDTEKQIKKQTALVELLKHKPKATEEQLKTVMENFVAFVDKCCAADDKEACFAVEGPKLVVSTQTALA

Take `N[C@@H](CCC(=O)N[C@@H](CS)C(=O)NCC(=O)O)C(=O)O` [Glutathion, red., Glutathion, reduziert]: the Entkopplung entry with Plasma (ET rises again after final addition of Cystein) was “keine 100%ige Entkopplung”. Besides, the “Restkonzentration an ET nach Adsorption an AK mit vorheriger Freisetzung durch Entkoppler” value with Plasma (uncoupler added directly) is given as 15%; in the assay with Plasma (uncoupler pre-adsorbed on AK), 16%. Moreover, the K-Werte entry in assay [1] was “ca. 100”. Moreover, on BSA, the “adsorbierte Menge nach 45 Minuten” value is “ca. 95%”.
